Experimental data reported in PubChem BioAssay AID2060497 (Molecular Pharmacology Branch, DTP, NCI, 2025).

Test system: 317291-083-R-J1-PDC complex spheroids, viability
Experiment: Anticancer human tumor 317291-083-R-J1-PDC patient-derived soft tissue sarcoma cell line growth inhibition [GQUAD]
Conditions: for IC50: curve of first compound; for viability, T/C: stronger effect = lower value
Outline: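 Tumor cells were grown as complex spheroids with HUVEC endothelial cells and mesenchymal stem cells as stroma. G-quadruplex stabilizers were combined with targeted agents over half-log dilutions from near the clinical Cmax, or from 10 microM.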

[1] = second compound 0.0316 µM, first compound 0.0316 µM
[2] = second compound 0.0316 µM, first compound 0.1 µM
[3] = second compound 0.0316 µM, first compound 0.316 µM
[4] = second compound 0.0316 µM, first compound 1 µM
[5] = second compound 0.0316 µM, first compound 3.16 µM
[6] = second compound 0.0316 µM, first compound 10 µM
[7] = second compound 0.1 µM, first compound 0.0316 µM
[8] = second compound 0.1 µM, first compound 0.1 µM
[9] = second compound 0.1 µM, first compound 0.316 µM
[10] = second compound 0.1 µM, first compound 1 µM
[11] = second compound 0.1 µM, first compound 3.16 µM
[12] = second compound 0.1 µM, first compound 10 µM
[13] = second compound 0.316 µM, first compound 0.0316 µM
[14] = second compound 0.316 µM, first compound 0.1 µM
[15] = second compound 0.316 µM, first compound 0.316 µM
[16] = second compound 0.316 µM, first compound 1 µM
[17] = second compound 0.316 µM, first compound 3.16 µM
[18] = second compound 0.316 µM, first compound 10 µM
[19] = second compound 1 µM, first compound 0.0316 µM
[20] = second compound 1 µM, first compound 0.1 µM
[21] = second compound 1 µM, first compound 0.316 µM
[22] = second compound 1 µM, first compound 1 µM
[23] = second compound 1 µM, first compound 3.16 µM
[24] = second compound 1 µM, first compound 10 µM
[25] = second compound 3.16 µM, first compound 0.0316 µM
[26] = second compound 3.16 µM, first compound 0.1 µM
[27] = second compound 3.16 µM, first compound 0.316 µM
[28] = second compound 3.16 µM, first compound 1 µM
[29] = second compound 3.16 µM, first compound 3.16 µM
[30] = second compound 3.16 µM, first compound 10 µM
[31] = second compound 10 µM, first compound 0.0316 µM
[32] = second compound 10 µM, first compound 0.1 µM
[33] = second compound 10 µM, first compound 0.316 µM
[34] = second compound 10 µM, first compound 1 µM
[35] = second compound 10 µM, first compound 3.16 µM
[36] = second compound 10 µM, first compound 10 µM
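Also: spheroids exposed to compounds for one week before readout.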
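For viability, T/C in this document: percent viability relative to DMSO vehicle wells taken as 100%.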

Nc1ccn(C2OC(CO)C(O)C2(F)F)c(=O)n1 (stereo not drawn) + Cc1[nH]c2ccc(F)cc2c1-c1nc2c3cccnc3c3ncccc3c2[nH]1
IC50 (second compound 0.0316 µM): 0.0448 µM | IC50 (second compound 0.1 µM): 0.0428 µM | IC50 (second compound 0.316 µM): 0.0328 µM | IC50 (second compound 1 µM): 0.0371 µM | IC50 (second compound 3.16 µM): 0.0351 µM | IC50 (second compound 10 µM): < 0.0316 µM | viability, T/C [1]: 63% | viability, T/C [2]: 20.3% | viability, T/C [3]: 11.9% | viability, T/C [4]: 11% | viability, T/C [5]: 11.8% | viability, T/C [6]: 8.15% | viability, T/C [7]: 57.9% | viability, T/C [8]: 27.4% | viability, T/C [9]: 14.8% | viability, T/C [10]: 12.3% | viability, T/C [11]: 11% | viability, T/C [12]: 9.19% | viability, T/C [13]: 51.2% | viability, T/C [14]: 16.1% | viability, T/C [15]: 13.1% | viability, T/C [16]: 16.2% | viability, T/C [17]: 10.3% | viability, T/C [18]: 8.34% | viability, T/C [19]: 55.6% | viability, T/C [20]: 15.8% | viability, T/C [21]: 10.5% | viability, T/C [22]: 9.19% | viability, T/C [23]: 9.71% | viability, T/C [24]: 8.18% | viability, T/C [25]: 52.8% | viability, T/C [26]: 22.5% | viability, T/C [27]: 12% | viability, T/C [28]: 12% | viability, T/C [29]: 11.2% | viability, T/C [30]: 10.7% | viability, T/C [31]: 40.3% | viability, T/C [32]: 13.2% | viability, T/C [33]: 10.2% | viability, T/C [34]: 8.15% | viability, T/C [35]: 13.3% | viability, T/C [36]: 9.1%

Cc1cccc(N(C)C(=O)C2C(O)CCN2c2nc(C)cc(C(F)(F)F)c2C#N)c1 (stereo not drawn) + Cc1cnc(CNC(=O)c2c(=O)c3ccc(N4CCCN(C)CC4)nc3n3c2sc2ccccc23)cn1
IC50 (second compound 0.0316 µM): > 10 µM | IC50 (second compound 0.1 µM): > 10 µM | IC50 (second compound 0.316 µM): 4.45 µM | IC50 (second compound 1 µM): < 0.0316 µM | IC50 (second compound 3.16 µM): < 0.0316 µM | IC50 (second compound 10 µM): < 0.0316 µM | viability, T/C [1]: 118% | viability, T/C [2]: 81.9% | viability, T/C [3]: 89.3% | viability, T/C [4]: 84.5% | viability, T/C [5]: 85.2% | viability, T/C [6]: 80.2% | viability, T/C [7]: 78.7% | viability, T/C [8]: 58.7% | viability, T/C [9]: 62.3% | viability, T/C [10]: 74% | viability, T/C [11]: 56% | viability, T/C [12]: 61.2% | viability, T/C [13]: 41.6% | viability, T/C [14]: 83.8% | viability, T/C [15]: 48% | viability, T/C [16]: 43.2% | viability, T/C [17]: 64% | viability, T/C [18]: 35.5% | viability, T/C [19]: 38.2% | viability, T/C [20]: 29.7% | viability, T/C [21]: 37.7% | viability, T/C [22]: 28.5% | viability, T/C [23]: 37.9% | viability, T/C [24]: 30.1% | viability, T/C [25]: 25.4% | viability, T/C [26]: 22.3% | viability, T/C [27]: 16.1% | viability, T/C [28]: 18.2% | viability, T/C [29]: 28.9% | viability, T/C [30]: 33.5% | viability, T/C [31]: 33.2% | viability, T/C [32]: 35.5% | viability, T/C [33]: 24.4% | viability, T/C [34]: 42.2% | viability, T/C [35]: 28.8% | viability, T/C [36]: 52.6%

CC(C)(O)C1CCC(Nc2ccc3ncc(-c4cccc(C(F)(F)F)c4)n3n2)CC1 (stereo not drawn) + Cc1cnc(CNC(=O)c2c(=O)c3ccc(N4CCCN(C)CC4)nc3n3c2sc2ccccc23)cn1
IC50 (second compound 0.0316 µM): 0.507 µM | IC50 (second compound 0.1 µM): 0.342 µM | IC50 (second compound 0.316 µM): 0.0914 µM | IC50 (second compound 1 µM): < 0.0316 µM | IC50 (second compound 3.16 µM): < 0.0316 µM | IC50 (second compound 10 µM): < 0.0316 µM | viability, T/C [1]: 87.8% | viability, T/C [2]: 76.5% | viability, T/C [3]: 72.1% | viability, T/C [4]: 19% | viability, T/C [5]: 0.22% | viability, T/C [6]: 0.45% | viability, T/C [7]: 58.2% | viability, T/C [8]: 60% | viability, T/C [9]: 49.1% | viability, T/C [10]: 28% | viability, T/C [11]: 0.24% | viability, T/C [12]: 1.34% | viability, T/C [13]: 72.8% | viability, T/C [14]: 37.8% | viability, T/C [15]: 37.8% | viability, T/C [16]: 24.8% | viability, T/C [17]: 1.74% | viability, T/C [18]: 2.26% | viability, T/C [19]: 30.8% | viability, T/C [20]: 19.5% | viability, T/C [21]: 16% | viability, T/C [22]: 25.2% | viability, T/C [23]: 0.05% | viability, T/C [24]: 0.07% | viability, T/C [25]: 13.3% | viability, T/C [26]: 14.7% | viability, T/C [27]: 8.5% | viability, T/C [28]: 0.54% | viability, T/C [29]: 0.12% | viability, T/C [30]: 0.16% | viability, T/C [31]: 1.34% | viability, T/C [32]: 0.11% | viability, T/C [33]: 0.17% | viability, T/C [34]: 0.12% | viability, T/C [35]: 0.21% | viability, T/C [36]: 0.22%

CC(=O)O[C@H]1C(=O)[C@@]2(C)[C@H]([C@H](OC(=O)c3ccccc3)[C@]3(O)C[C@H](OC(=O)[C@H](O)[C@@H](NC(=O)c4ccccc4)c4ccccc4)C(C)=C1C3(C)C)[C@]1(OC(C)=O)CO[C@@H]1C[C@@H]2O + CN(C)c1ccc(Nc2c3ccc(NC(=O)CCN4CCCC4)cc3nc3cc(NC(=O)CCN4CCCC4)ccc23)cc1
IC50 (second compound 0.0316 µM): < 0.0316 µM | IC50 (second compound 0.1 µM): < 0.0316 µM | IC50 (second compound 0.316 µM): < 0.0316 µM | IC50 (second compound 1 µM): < 0.0316 µM | IC50 (second compound 3.16 µM): < 0.0316 µM | IC50 (second compound 10 µM): < 0.0316 µM | viability, T/C [1]: 46.5% | viability, T/C [2]: 17% | viability, T/C [3]: 12.4% | viability, T/C [4]: 14.7% | viability, T/C [5]: 11.4% | viability, T/C [6]: 12.4% | viability, T/C [7]: 39.5% | viability, T/C [8]: 13.6% | viability, T/C [9]: 12.5% | viability, T/C [10]: 12.2% | viability, T/C [11]: 10.4% | viability, T/C [12]: 10.6% | viability, T/C [13]: 25.9% | viability, T/C [14]: 14% | viability, T/C [15]: 9.98% | viability, T/C [16]: 8.69% | viability, T/C [17]: 10.2% | viability, T/C [18]: 9.42% | viability, T/C [19]: 21.7% | viability, T/C [20]: 6.55% | viability, T/C [21]: 5.24% | viability, T/C [22]: 7.99% | viability, T/C [23]: 6.09% | viability, T/C [24]: 6.28% | viability, T/C [25]: 9.14% | viability, T/C [26]: 0.56% | viability, T/C [27]: 0.37% | viability, T/C [28]: 0.6% | viability, T/C [29]: 1.62% | viability, T/C [30]: 0.92% | viability, T/C [31]: 0.91% | viability, T/C [32]: 0.27% | viability, T/C [33]: 0.18% | viability, T/C [34]: 0.29% | viability, T/C [35]: 0.25% | viability, T/C [36]: 0.23%
